Data set [1] concerns the target T1, rat histamine H3 receptor (Rattus norvegicus, UniProt Q9QYN8).
T1 construct: encoding the entire 445-amino-acid rat histamine H3 receptor; expressed in transfected cells; membrane preparation
The experiment in a line: Rat H3 radioligand binding ([3H]-N-alpha-methylhistamine, SPA). A digest of the protocol: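 SPA-bead binding assay using [3H]-N-alpha-methylhistamine (approximately 1 nM final) with test compounds from 0.01 nM to 30 μM. Rat H3 receptor membranes came from stably transfected CHO-A3 cells; incubation ran 4 h at room temperature, in the dark, in Tris pH 7.4 buffer with MgCl2 and BSA. Clobenpropit (10 μM) gave non-specific binding.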

The next data set has as its target T2, human H3 receptor (Homo sapiens, UniProt Q9Y5N1).
T2 construct: expressed in transfected cells
The data set is described as follows: Human H3 radioligand binding ([3H]-N-alpha-methylhistamine, SPA). A digest of the protocol:
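Compounds (0.01 nM-30 μM) competed with approximately 1 nM [3H]-N-alpha-methylhistamine for human H3 receptor in membranes of stably transfected CHO cells, 10 μg protein per well, in Tris-HCl pH 7.4/MgCl2/BSA buffer for 4 h at room temperature. Bound radioligand measured by scintillation proximity; 10 μM clobenpropit gave non-specific binding.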

[2] abbreviates: Rat H3 binding, Table B, Examples 136-362, read-out: rat H3 binding Ki.
[3] abbreviates: Human H3 binding, Table B, Examples 136-362, read-out: hum H3 binding Ki.
The mark [4] stands for this setting: Table A, rat H3 binding, read-out: Rat Ki.
The mark [5] stands for this setting: Table A, human H3 binding, read-out: Human Ki.
Where [6] appears, read: rat H3 binding, Table D, read-out: Rat H3 Ki.
[7] abbreviates: human H3 binding, Table D, read-out: Human H3 Ki.

We go through 33 compounds from US8513232B2, “Substituted spirocyclic piperidine derivatives as histamine-3 (H3) receptor ligands” (Cephalon, Inc., priority 2008, dated 2013).

SMILES strings stand for the structures. Like-named read-outs stand apart in the source and are kept apart here. Some results are limits rather than exact numbers.

By Ki is commonly meant the equilibrium dissociation constant of an inhibitor or competing ligand from its target. By melting point is commonly meant the temperature, or range, at which the solid turns liquid.

T1 sequence (Q9QYN8 whole entry): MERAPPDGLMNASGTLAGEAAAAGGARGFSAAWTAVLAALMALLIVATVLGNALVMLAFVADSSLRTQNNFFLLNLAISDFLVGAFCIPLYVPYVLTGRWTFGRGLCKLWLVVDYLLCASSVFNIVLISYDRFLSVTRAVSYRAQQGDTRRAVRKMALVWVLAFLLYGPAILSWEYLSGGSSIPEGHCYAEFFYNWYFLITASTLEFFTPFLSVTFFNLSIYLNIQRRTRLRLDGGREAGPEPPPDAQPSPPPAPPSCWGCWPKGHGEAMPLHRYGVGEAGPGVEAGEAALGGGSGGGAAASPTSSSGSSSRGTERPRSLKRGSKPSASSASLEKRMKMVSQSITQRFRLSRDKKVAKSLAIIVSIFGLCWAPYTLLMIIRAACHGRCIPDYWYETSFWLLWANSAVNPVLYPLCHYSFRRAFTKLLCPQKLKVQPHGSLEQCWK
T2 sequence (Q9Y5N1 whole entry): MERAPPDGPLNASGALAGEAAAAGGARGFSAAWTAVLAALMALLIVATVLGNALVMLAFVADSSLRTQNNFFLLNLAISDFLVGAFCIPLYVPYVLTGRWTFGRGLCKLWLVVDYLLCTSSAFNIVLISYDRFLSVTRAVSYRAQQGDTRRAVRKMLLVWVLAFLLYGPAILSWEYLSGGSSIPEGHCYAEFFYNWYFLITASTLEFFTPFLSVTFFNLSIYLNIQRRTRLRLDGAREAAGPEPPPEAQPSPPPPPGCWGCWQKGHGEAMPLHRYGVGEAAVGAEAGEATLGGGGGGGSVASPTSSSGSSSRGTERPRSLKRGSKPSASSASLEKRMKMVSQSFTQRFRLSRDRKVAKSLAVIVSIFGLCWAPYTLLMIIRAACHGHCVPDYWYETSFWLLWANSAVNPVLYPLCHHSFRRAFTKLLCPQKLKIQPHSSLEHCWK

`COCCNC(=O)c1ccc(-c2ccc3c(c2)COC2(CCN(C4CCC4)CC2)O3)cc1F` [Example 202] showed a melting point of 107 to 108.5 °C. Also, in data set [1] (setting [2]), the Ki is less than 200 nM. In addition, the Ki at human H3 receptor (setting [3]) was less than 200 nM.

`C1=C(c2ccc3c(c2)COC2(CCN(C4CCC4)CC2)O3)CCOC1` [Example 478] displayed a melting point of 168 to 169 °C. In addition, the inhibition constant (Ki) in data set [1] (read-out: Rat H3 kI) is less than 200 nM. Moreover, the inhibition constant Ki at human H3 receptor (read-out: Human H3 Ki) is less than 200 nM.

In the case of `CCOc1ccc(-c2ccc3c(c2)OC2(CCN(C4CCC4)CC2)OC3)cn1` [Example 95], the melting point came out at 54 °C. Moreover, the inhibition constant Ki in data set [1] (setting [4]) was more than 1000 nM. Also, the inhibition constant (Ki) at human H3 receptor (setting [5]) was more than 1000 nM.

Consider `COc1ccc(-c2ccc3c(c2)COC2(CCN(CCC4CCOCC4)CC2)O3)cn1` [Example 711], for which the melting point fell in the range of 143 to 145 °C. Besides, the inhibition constant Ki in data set [1] (setting [6]) was more than 1000 nM. Also, the Ki at human H3 receptor (setting [7]) was more than 1000 nM.

Compound `COc1ccc(-c2ccc3c(c2)COC2(CCN(C4CCC4)CC2)O3)cn1` [Example 22] came in with a melting point of 122 to 124 °C. Moreover, the Ki in data set [1] (setting [4]) is less than 200 nM. Moreover, the Ki at human H3 receptor (setting [5]) is less than 200 nM.

The compound `O=C(c1ccc(-c2ccc3c(c2)COC2(CCN(C4CCC4)CC2)O3)cc1)N1CC[C@H](O)C1` [Example 148] had a melting point of 178 to 181 °C. Moreover, the Ki in data set [1] (setting [2]) was less than 200 nM. The Ki at human H3 receptor (setting [3]) is less than 200 nM.

Compound `COCCN1CC(COc2ccc3c(c2)CCC2(CCN(C4CCC4)CC2)O3)CC1=O` (stereo not drawn) [Example 515] had a melting point of 194 to 196 °C. The Ki in data set [1] (read-out: Rat H3 kI) was less than 200 nM. Further, at human H3 receptor (read-out: Human H3 Ki), the inhibition constant Ki was less than 200 nM.

`OC(c1ccc2c(c1)COC1(CCN(C3CCC3)CC1)O2)C1CCCC1` (stereo not drawn) [Example 536] gave a melting point of 148 to 150 °C. Moreover, in data set [1] (read-out: Rat H3 kI), the inhibitory constant (Ki) was less than 200 nM. Further, the Ki on human H3 receptor (read-out: Human H3 Ki) is less than 200 nM.

Consider `COc1cc(-c2ccc3c(c2)COC2(CCN(C4CCC4)CC2)O3)ccc1C(=O)NC1CCOCC1` [Example 635], for which the melting point was in the range of 86 to 88 °C. Also, the inhibitory constant (Ki) in data set [1] (setting [6]) is less than 200 nM. The inhibitory constant (Ki) at human H3 receptor (setting [7]) is less than 200 nM.

The compound `COc1ncc(-c2ccc3c(c2)COC2(CCN(C4CCC4)CC2)O3)cc1Cl` [Example 629] gave a melting point of 174 to 175 °C. Further, in data set [1] (setting [6]), the Ki was less than 200 nM. Further, on human H3 receptor (setting [7]), the Ki was less than 200 nM.

Regarding `O=C1OCCN1c1ccc2c(c1)COC1(CCN(C3CCC3)CC1)O2` [Example 77], the melting point was in the range of 165 to 168 °C. The Ki in data set [1] (setting [4]) was less than 200 nM. The Ki on human H3 receptor (setting [5]) was less than 200 nM.

Regarding `COC1(c2ccc3c(c2)COC2(CCN(C4CCC4)CC2)O3)CCC(F)(F)CC1` [Example 556], the melting point is 116 to 118 °C. In addition, the Ki in data set [1] (read-out: Rat H3 kI) was less than 200 nM. For the same compound, at human H3 receptor (read-out: Human H3 Ki), the Ki was less than 200 nM.

Turning to `Cc1nc(-c2ccc3c(c2)COC2(CCN(C4CCC4)CC2)O3)cs1` [Example 74], the melting point was 151 to 153 °C. In data set [1] (setting [4]), the inhibition constant Ki was less than 200 nM. Further, at human H3 receptor (setting [5]), the Ki was less than 200 nM.

`CN(C)C(=O)c1ccc(COc2ccc3c(c2)CCC2(CCN(C4CCC4)CC2)O3)nc1` [Example 674] gave a melting point of 75 to 78 °C. In addition, the Ki in data set [1] (setting [6]) was less than 200 nM. Moreover, on human H3 receptor (setting [7]), the Ki is less than 200 nM.

Regarding `CC(=O)N(Cc1ccccc1)c1ccc2c(c1)COC1(CCN(C3CCC3)CC1)O2` [Example 290], the melting point fell in the range of 115 to 117 °C. Besides, the inhibitory constant (Ki) in data set [1] (setting [2]) was less than 200 nM. At human H3 receptor (setting [3]), the Ki was less than 200 nM.

Take `CS(=O)(=O)c1ccc(COc2ccc3c(c2)CCC2(CCN(C4CCC4)CC2)O3)cc1` [Example 617]: the melting point is 142 to 146 °C. In data set [1] (setting [6]), the Ki is less than 200 nM. Moreover, at human H3 receptor (setting [7]), the Ki is less than 200 nM.

Consider `CNC(=O)c1ccc(-c2cc3c(cc2Cl)OC2(CCN(C4CCC4)CC2)OC3)cc1` [Example 266], for which the melting point was 95 to 97 °C. Moreover, the inhibition constant Ki in data set [1] (setting [2]) is less than 200 nM. Besides, the inhibition constant (Ki) on human H3 receptor (setting [3]) was less than 200 nM.

With `CN(C)C(=O)C1CC(N2CCC3(CC2)OCc2cc(-c4ccc(=O)[nH]c4)ccc2O3)C1` (stereo not drawn) [Example 735], the melting point was in the range of 247 to 249 °C. Also, the inhibition constant (Ki) in data set [1] (setting [6]) was more than 1000 nM. On human H3 receptor (setting [7]), the Ki was more than 1000 nM.

In the case of `COCCNC(=O)CCc1ccc2c(c1)COC1(CCN(C3CCC3)CC1)O2` [Example 644], the melting point was in the range of 68 to 70 °C. Also, the inhibition constant (Ki) in data set [1] (setting [6]) is 200 to 1000 nM. Also, the Ki on human H3 receptor (setting [7]) was less than 200 nM.

The compound `O=C(c1ccc(-c2ccc3c(c2)COC2(CCN(C4CCC4)CC2)O3)cn1)N1CC[C@@H](O)C1` [Example 173] showed a melting point of 100 to 101 °C. The inhibitory constant (Ki) in data set [1] (setting [2]) is less than 200 nM. In addition, on human H3 receptor (setting [3]), the Ki was less than 200 nM.

`O=c1ccc(-c2ccc3c(c2)COC2(CCN(C4CCOC4)CC2)O3)c[nH]1` (stereo not drawn) [Example 729] showed a melting point of 222 to 226 °C. For the same compound, the inhibition constant (Ki) in data set [1] (setting [6]) was 200 to 1000 nM. Besides, the inhibition constant (Ki) on human H3 receptor (setting [7]) is 200 to 1000 nM.

In the case of `OC1(c2ccc3c(c2)COC2(CCN(C4CCC4)CC2)O3)CCCCC1` [Example 512], the melting point was in the range of 164 to 165 °C. Besides, in data set [1] (read-out: Rat H3 kI), the Ki is less than 200 nM. Moreover, the Ki on human H3 receptor (read-out: Human H3 Ki) was less than 200 nM.

As for `O=C(NCCO)c1c(F)cc(-c2ccc3c(c2)CCC2(CCN(C4CCC4)CC2)O3)cc1F` [Example 260], the melting point was in the range of 76.3 to 78.2 °C. Besides, the Ki in data set [1] (setting [2]) is less than 200 nM. Further, the Ki at human H3 receptor (setting [3]) was less than 200 nM.

`COc1nc(C)c(-c2ccc3c(c2)COC2(CCN(C4CCC4)CC2)O3)cc1C#N` [Example 796] had a melting point of 215 to 217 °C. In addition, the Ki in data set [1] (setting [6]) is less than 200 nM. For the same compound, the Ki on human H3 receptor (setting [7]) is less than 200 nM.

`COc1ncc(-c2ccc3c(c2)COC2(CCN(C4CCC4)CC2)O3)cc1C` [Example 610]: the melting point was 142 to 145 °C. In addition, in data set [1] (setting [6]), the inhibition constant (Ki) is less than 200 nM. Moreover, the inhibition constant Ki on human H3 receptor (setting [7]) was less than 200 nM.

For the compound `COc1ccc(Oc2ccc3c(c2)CCC2(CCN(C4CCC4)CC2)O3)cn1` [Example 481], the melting point lay within 232 to 234 °C. In addition, the inhibition constant Ki in data set [1] (read-out: Rat H3 kI) was less than 200 nM. For the same compound, the Ki at human H3 receptor (read-out: Human H3 Ki) is less than 200 nM.

The compound `Cc1cccc(C)c1-c1ccc2c(c1)COC1(CCN(C3CCC3)CC1)O2` [Example 756] displayed a melting point of 58 to 60 °C. The inhibitory constant (Ki) in data set [1] (setting [6]) lay within 200 to 1000 nM. In addition, on human H3 receptor (setting [7]), the inhibitory constant (Ki) is less than 200 nM.

`O=C(C1CCN(c2ccc3c(c2)CCC2(CCN(C4CCC4)CC2)O3)CC1)N1CCCC1` [Example 418] returned a melting point of 290 to 292 °C. Besides, the Ki in data set [1] (Table C, rat H3 binding, read-out: Rat H3 Ki) is less than 200 nM. Besides, on human H3 receptor (Table C, human H3 binding, read-out: Human H3 Ki), the Ki was less than 200 nM.

In the case of `CNC(=O)c1ccc(-c2ccc3c(c2)CCOC2(CCN(C4CCC4)CC2)O3)cn1` [Example 175], the melting point was in the range of 141 to 142.2 °C. Besides, the Ki in data set [1] (setting [2]) was more than 1000 nM. In addition, at human H3 receptor (setting [3]), the Ki lay within 200 to 1000 nM.

Regarding `O=C(Nc1ccc2c(c1)COC1(CCN(C3CCC3)CC1)O2)c1ccncc1` [Example 150], the melting point is 180 to 182 °C. The Ki in data set [1] (setting [2]) is less than 200 nM. On human H3 receptor (setting [3]), the Ki was less than 200 nM.

`Cc1cc(C(=O)Nc2ccc3c(c2)COC2(CCN(C4CCC4)CC2)O3)cc(C)n1` [Example 296] returned a melting point of 191 to 193 °C. Moreover, the inhibition constant Ki in data set [1] (setting [2]) was less than 200 nM. For the same compound, the Ki at human H3 receptor (setting [3]) is less than 200 nM.

Consider `COCC(C)(C)NC(=O)c1ccc(-c2ccc3c(c2)CCC2(CCN(C4CCC4)CC2)O3)cc1` [Example 274], for which the melting point is 264 to 266 °C. Further, the Ki in data set [1] (setting [2]) is less than 200 nM. For the same compound, the Ki at human H3 receptor (setting [3]) is less than 200 nM.

`CN(C)C(=O)c1ccc(-c2ccc3c(c2)COC2(CCN(C4CCC4)CC2)O3)nc1` [Example 638] returned a melting point of 190 to 193 °C. Besides, in data set [1] (setting [6]), the inhibitory constant (Ki) is less than 200 nM. In addition, the Ki at human H3 receptor (setting [7]) was less than 200 nM.
